From paper PMC9368981, “The γ-Core Motif Peptides of AMPs from Grasses Display Inhibitory Activity against Human and Plant Pathogens” (International Journal of Molecular Sciences, 2022)
Where a SMILES comes first, the peptide text is derived from it.

How the values were obtained:
[1] = tested on: Cr. neoformans cells; assay: Propidium iodide staining, fluorescence microscopy; assay type: cell-based, Cryptococcus neoformans; settings: peptide 300 µM, 30 °C, 1 h, 0.03 mM PI 15 min
Description: (§1) Their ability to disturb the integrity of pathogen membranes was assayed by staining with propidium iodide of C. albicans and Cr. neoformans cells preliminarily incubated with the peptides. The results were visualized by fluorescent microscopy and quantified by flow cytometry (Figure 5, Figure 6 and Figure 7).
(§2) Staining of yeast cells with propidium iodide in the presence of the γ-core peptides was carried out according to the protocol described earlier. C. albicans or Cr. neoformans cells (24 h culture in YPD-P at a cell concentration of 2 × 10^8/mL) were incubated with the peptide at a concentration of 300 µM at 30 °C for 1 h. After incubation, 1 mL of the cells was stained with 0.03 mM propidium iodide (Sigma, St. Louis, MO, USA). The staining proceeded for 15 min at 30 °C. The fluorescence was recorded on an AXIO Imager A1 fluorescence microscope (ZEISS, Göttingen, Germany) using a Zeiss filter set 56 HE.

[2] = tested on: Cryptococcus neoformans VKM Y-2755; assay type: cell-based; settings: inhibition curves (Figure 4); highest tested concentration (300 µM)
Description: (§3) The antimicrobial activity of synthetic peptides was tested against a panel of human and plant pathogens. Among them were the yeasts Candida albicans VKM Y-2994 and Cryptococcus neoformans VKM Y-2755, the plant pathogenic bacteria Clavibacter michiganensis subsp. michiganensis VKM Ac-1403, Pseudomonas savastanoi pv. savastanoi VKM B-1546 and Pectobacterium carotovorum subsp. carotovorum VKM B-1247, and four Fusarium species (F. oxysporum VKM F-137, F. culmorum VKM F-2303, F. solani VKM F-142 and F. verticillioides VKM F-670), which cause diseases in plants and humans. The antimicrobial activity was first measured at the peptide concentration of 300 µM (Figure 3).
(§4) The antimicrobial activity of synthetic peptides was tested against the yeasts Candida albicans VKM Y-2994 and Cryptococcus neoformans VKM Y-2755, the bacteria Pseudomonas savastanoi pv. savastanoi VKM B-1546, Pectobacterium carotovorum subsp. carotovorum VKM B-1247 and Clavibacter michiganensis subsp. michiganensis VKM Ac-1403, and four Fusarium species: F. culmorum VKM F-2303, F. oxysporum VKM F-137, F. solani VKM F-142 and F. verticillioides VKM F-670. All cultures were obtained from the All-Russian Collection of Microorganisms (VKM). The details of the production and storage of cultures of microorganisms used in this study are described at the VKM Home page. Antimicrobial assays were accomplished according to the procedure described earlier. In short, yeasts were grown on the YPD-P medium and the bacteria P. carotovorum and Cl. michiganensis were cultured on a modified YPD-P medium. The Fusarium fungi were grown on potato dextrose agar at 25 °C for 7–8 days, and spores were washed off from the surface of the mycelia with sterile, distilled water. The antimicrobial activity of the peptides was measured in immunoassay microtiter plates according to the protocol of Broekaert et al.. With yeasts and bacteria, each well contained 10 µL of the tested peptide solution (final concentrations of 10–300 µM) in water, 80 µL of the medium and 10 µL of the microbial suspension. The plates were incubated at 30 °C for 24 h, and the absorbance of the suspension was measured on an Efos 9305 spectrophotometer (Sapphire, Moscow, Russia) at 594 nm. For Fusarium species, the wells of a microtiter plate were filled with 90 µL of the fungal spore suspension in half-strength potato dextrose broth at a concentration of 2000–3000 spores in 100 µL and 10 µL of aqueous solutions of peptides at final concentrations of 10–300 µM. After 38 h of incubation, the absorbance was recorded at 595 nm on a FilterMax F5 Multi-Mode Microplate Reader (Molecular Devices, San Jose, CA, USA). Antimicrobial activity is expressed in IC50 values, which show the concentration necessary for 50% inhibition of the pathogen growth; this was determined from a graph showing the activity dependence on peptide concentration.
(§5) For each pathogen, experiments on the peptide antimicrobial activity evaluation were carried out in triplicate per treatment. Mean values, standard deviations (SD), and the significance of differences (p ≤ 0.05) of the means between treatments and controls (t-test for independent variables) were determined using STATISTICA v. 6.1 software (StatSoft Inc., Tulsa, OK, USA).

[3] = tested on: Clavibacter michiganensis subsp. michiganensis VKM Ac-1403; assay: Growth inhibition of Cl. michiganensis in microtiter plates; assay type: cell-based; settings: inhibition curves (Figure 4); highest tested concentration of 300 µM
Description: as §3
The antimicrobial activity of synthetic peptides was tested against the yeasts Candida albicans VKM Y-2994 and Cryptococcus neoformans VKM Y-2755, the bacteria Pseudomonas savastanoi pv. savastanoi VKM B-1546, Pectobacterium carotovorum subsp. carotovorum VKM B-1247 and Clavibacter michiganensis subsp. michiganensis VKM Ac-1403, and four Fusarium species: F. culmorum VKM F-2303, F. oxysporum VKM F-137, F. solani VKM F-142 and F. verticillioides VKM F-670. All cultures were obtained from the All-Russian Collection of Microorganisms (VKM). […] The antimicrobial activity of the peptides was measured in immunoassay microtiter plates according to the protocol of Broekaert et al.. […] The plates were incubated at 30 °C for 24 h, and the absorbance of the suspension was measured on an Efos 9305 spectrophotometer (Sapphire, Moscow, Russia) at 594 nm. […] After 38 h of incubation, the absorbance was recorded at 595 nm on a FilterMax F5 Multi-Mode Microplate Reader (Molecular Devices, San Jose, CA, USA). […]
as §5, with “6.1 software (StatSoft Inc., Tulsa, OK, USA).” left out

[4] = tested on: C. albicans cells; assay: Propidium iodide staining, fluorescence microscopy; assay type: cell-based, Candida albicans; settings: peptide 300 µM, 30 °C, 1 h, 0.03 mM PI 15 min
Description: as §1, §2

[5] = tested on: F. culmorum VKM F-2303; assay: Growth inhibition of F. culmorum in microtiter plates; assay type: cell-based, Fusarium culmorum; settings: 300 µM peptide; spores in half-strength potato dextrose broth, 38 h, absorbance 595 nm; vs control without peptide; triplicate, mean
Description: as §3
(§6) The antimicrobial activity of synthetic peptides was tested against the yeasts Candida albicans VKM Y-2994 and Cryptococcus neoformans VKM Y-2755, the bacteria Pseudomonas savastanoi pv. savastanoi VKM B-1546, Pectobacterium carotovorum subsp. carotovorum VKM B-1247 and Clavibacter michiganensis subsp. michiganensis VKM Ac-1403, and four Fusarium species: F. culmorum VKM F-2303, F. oxysporum VKM F-137, F. solani VKM F-142 and F. verticillioides VKM F-670. All cultures were obtained from the All-Russian Collection of Microorganisms (VKM). […] The antimicrobial activity of the peptides was measured in immunoassay microtiter plates according to the protocol of Broekaert et al.. […]

[6] = tested on: F. oxysporum VKM F-137; assay: Growth inhibition of F. oxysporum in microtiter plates; assay type: cell-based, Fusarium oxysporum; settings: 300 µM peptide; spores in half-strength potato dextrose broth, 38 h, absorbance 595 nm; vs control without peptide; triplicate, mean
Description: as §3, §6

[7] = tested on: F. solani VKM F-142; assay: Growth inhibition of F. solani in microtiter plates; assay type: cell-based, Fusarium solani; settings: 300 µM peptide; spores in half-strength potato dextrose broth, 38 h, absorbance 595 nm; vs control without peptide; triplicate, mean
Description: as §3, §6

[8] = tested on: F. verticillioides VKM F-670; assay type: cell-based, Fusarium verticillioides; settings: 300 µM peptide; spores in half-strength potato dextrose broth, 38 h, absorbance 595 nm; vs control without peptide; triplicate, mean
Description: as §3, §4, §5

SMILES	Membrane permeabilization of Cr. neoformans cells (PI staining) [1]	Inhibition of Cr. neoformans at the highest tested concentration [2] [%]	Inhibition of Cl. michiganensis at the highest tested concentration [3] [%]	Membrane permeabilization of C. albicans cells (PI staining) [4]	Pathogen inhibition, % (F. culmorum) [5]	Pathogen inhibition, % (F. oxysporum) [6]	Pathogen inhibition, % (F. solani) [7]	Pathogen inhibition, % (F. verticillioides) [8]
C[C@H](N)C(=O)N[C@@H](CS)C(=O)N1CCC[C@H]1C(=O)NCC(=O)N[C@@H](C)C(=O)N[C@@H](CS)C(=O)N1CCC[C@H]1C(=O)N[C@@H](C)C(=O)N1CCC[C@H]1C(=O)NCC(=O)NCC(=O)N[C@@H](CO)C(=O)N[C@@H](Cc1ccc(O)cc1)C(=O)N[C@H](C(=O)N[C@@H](CC(N)=O)C(=O)N[C@@H](CCCNC(=N)N)C(=O)NCC(=O)N[C@@H](CS)C(=O)N[C@@H](CCC(N)=O)C(=O)N[C@@H](CCCCN)C(=O)N[C@@H](CCCCN)C(=O)N[C@@H](Cc1ccc(O)cc1)C(=O)N[C@@H](CCC(N)=O)C(=O)N[C@@H](CS)C(=O)N[C@@H](CCCNC(=N)N)C(=O)O)[C@@H](C)O [DEFL4-20_86-110] (H-ACPGACPAPGGSYTNRGCQKKYQCR-OH; N-terminus and C-terminus assumed)	induced membrane permeabilization	95	91	induced membrane permeabilization	–	–	–	–
CC[C@H](C)[C@H](NC(=O)[C@@H](NC(=O)[C@H](Cc1c[nH]cn1)NC(=O)[C@@H](NC(=O)[C@H](C)NC(=O)[C@@H](NC(=O)[C@H](CS)NC(=O)[C@H](CS)NC(=O)CNC(=O)[C@@H](N)CO)[C@@H](C)O)C(C)C)[C@@H](C)O)C(=O)NCC(=O)N[C@@H](CCCCN)C(=O)N[C@@H](CCC(N)=O)C(=O)N[C@@H](CO)C(=O)N1CCC[C@H]1C(=O)N[C@@H](CCCCN)C(=O)N[C@@H](CS)C(=O)O [TkLTPd5.6_59-75] (H-SGCCTAVHTIGKQSPKC-OH; N-terminus and C-terminus assumed)	–	–	–	–	inactive	inactive	inactive	inactive
